# Data taken from US20260042731A1, “(2,4-DICHLOROPHENOXY)ACETIC ACID ANALOGS” (CORTEVA AGRISCIENCE LLC, priority 2022, published 2026).
# Like-named read-outs stand apart in the source and are kept apart here.
# Key:
# [1] = tested on: glyphosate resistant Conyza canadensis (L.) (ERICA), horseweed; test: Postemergence herbicide evaluation, growth of Conyza canadensis (ERICA); type: in vivo; conditions: Erigeron canadensis, post-emergence, percent reduction in plant size vs untreated control, read-out: Ave. ERICA; for pest or weed control at 280 g/ha: 280 g ae/ha; for pest or weed control at 560 g/ha: 560 g ae/ha
# [2] = tested on: weeds ABUTH, AMATA, AMBEL, CHEAL, ERICA; test: Postemergence herbicide evaluation, overall average % weed control across ABUTH, AMATA, AMBEL, CHEAL and ERICA; type: in vivo; conditions: post-emergence, average over five weeds, read-out: Overall Ave % Weed Control; for pest or weed control at 280 g/ha: 280 g ae/ha; for pest or weed control at 560 g/ha: 560 g ae/ha
# [3] = Volatility of compounds measured by thermogravimetric analysis (TGA); type: physicochemical
# [4] = tested on: Ambrosia artemisiifolia (AMBEL), common ragweed; test: Postemergence herbicide evaluation, growth of Ambrosia artemisiifolia (AMBEL); type: in vivo; conditions: Ambrosia artemisiifolia, post-emergence, percent reduction in plant size vs untreated control, read-out: AVE. AMBEL; for pest or weed control at 280 g/ha: 280 g ae/ha; for pest or weed control at 560 g/ha: 560 g ae/ha
# [5] = tested on: Amaranthus rudis (AMATA), tall water hemp; test: Postemergence herbicide evaluation, growth of Amaranthus rudis (AMATA); type: in vivo; conditions: Amaranthus tuberculatus, post-emergence, percent reduction in plant size vs untreated control, read-out: Ave. AMATA; for pest or weed control at 280 g/ha: 280 g ae/ha; for pest or weed control at 560 g/ha: 560 g ae/ha
# [6] = tested on: Abutilon theophrasti (ABUTH), velvetleaf; test: Postemergence herbicide evaluation, growth of Abutilon theophrasti (ABUTH); type: in vivo; conditions: Abutilon theophrasti, post-emergence, percent reduction in plant size vs untreated control, read-out: AVE. ABUTH; for pest or weed control at 280 g/ha: 280 g ae/ha; for pest or weed control at 560 g/ha: 560 g ae/ha
# [7] = tested on: Chenopodium album (CHEAL), common lambsquarters; test: Postemergence herbicide evaluation, growth of Chenopodium album (CHEAL); type: in vivo; conditions: Chenopodium album, post-emergence, percent reduction in plant size vs untreated control, read-out: Ave. CHEAL; for pest or weed control at 280 g/ha: 280 g ae/ha; for pest or weed control at 560 g/ha: 560 g ae/ha
Structure (SMILES),"pest or weed control at 280 g/ha ([1]; 168 h, 7 DAA)","pest or weed control at 560 g/ha ([1]; 168 h, 7 DAA)","pest or weed control at 280 g/ha ([1]; 336 h, 14 DAA)","pest or weed control at 560 g/ha ([1]; 336 h, 14 DAA)","pest or weed control at 280 g/ha ([1]; 504 h, 21 DAA)","pest or weed control at 560 g/ha ([1]; 504 h, 21 DAA)","pest or weed control at 280 g/ha ([2]; 168 h, 7 DAA)","pest or weed control at 560 g/ha ([2]; 168 h, 7 DAA)","pest or weed control at 280 g/ha ([2]; 336 h, 14 DAA)","pest or weed control at 560 g/ha ([2]; 336 h, 14 DAA)","pest or weed control at 280 g/ha ([2]; 504 h, 21 DAA)","pest or weed control at 560 g/ha ([2]; 504 h, 21 DAA)","TGA Data (rate of weight loss, volatility) [3]","pest or weed control at 280 g/ha ([4]; 168 h, 7 DAA)","pest or weed control at 560 g/ha ([4]; 168 h, 7 DAA)","pest or weed control at 280 g/ha ([4]; 336 h, 14 DAA)","pest or weed control at 560 g/ha ([4]; 336 h, 14 DAA)","pest or weed control at 280 g/ha ([4]; 504 h, 21 DAA)","pest or weed control at 560 g/ha ([4]; 504 h, 21 DAA)","pest or weed control at 280 g/ha ([5]; 168 h, 7 DAA)",other results
CONC(=O)COc1ccc(Cl)cc1Cl [Compound D19],82.5%,80%,98%,100%,98.5%,99.5%,79%,87.2%,90.7%,94.3%,93.2%,94.5%,0.61 µg/min,82.5%,93.5%,82.5%,85%,100%,100%,77.5%,"pest or weed control at 560 g/ha ([5]; 168 h, 7 DAA): 90%; pest or weed control at 280 g/ha ([5]; 336 h, 14 DAA): 90%; pest or weed control at 560 g/ha ([5]; 336 h, 14 DAA): 93.5%; pest or weed control at 280 g/ha ([5]; 504 h, 21 DAA): 72.5%; pest or weed control at 560 g/ha ([5]; 504 h, 21 DAA): 75%; pest or weed control at 280 g/ha ([6]; 168 h, 7 DAA): 75%; pest or weed control at 560 g/ha ([6]; 168 h, 7 DAA): 87.5%; pest or weed control at 280 g/ha ([6]; 336 h, 14 DAA): 89%; pest or weed control at 560 g/ha ([6]; 336 h, 14 DAA): 98%; pest or weed control at 280 g/ha ([6]; 504 h, 21 DAA): 98.5%; pest or weed control at 560 g/ha ([6]; 504 h, 21 DAA): 100%; pest or weed control at 280 g/ha ([7]; 168 h, 7 DAA): 77.5%; pest or weed control at 560 g/ha ([7]; 168 h, 7 DAA): 85%; pest or weed control at 280 g/ha ([7]; 336 h, 14 DAA): 94%; pest or weed control at 560 g/ha ([7]; 336 h, 14 DAA): 95%; pest or weed control at 280 g/ha ([7]; 504 h, 21 DAA): 96.5%; pest or weed control at 560 g/ha ([7]; 504 h, 21 DAA): 98%"
C/C(=N\OC(=O)COc1ccc(Cl)cc1Cl)C(=O)c1ccccc1 [Compound A22],87.5%,77.5%,100%,100%,99%,99.5%,74.5%,79.5%,87%,96.5%,89.7%,96.8%,0.42 µg/min,77.5%,82.5%,67.5%,92.5%,100%,100%,70%,"pest or weed control at 560 g/ha ([5]; 168 h, 7 DAA): 87.5%; pest or weed control at 280 g/ha ([5]; 336 h, 14 DAA): 87.5%; pest or weed control at 560 g/ha ([5]; 336 h, 14 DAA): 92.5%; pest or weed control at 280 g/ha ([5]; 504 h, 21 DAA): 65%; pest or weed control at 560 g/ha ([5]; 504 h, 21 DAA): 87.5%; pest or weed control at 280 g/ha ([6]; 168 h, 7 DAA): 62.5%; pest or weed control at 560 g/ha ([6]; 168 h, 7 DAA): 70%; pest or weed control at 280 g/ha ([6]; 336 h, 14 DAA): 82.5%; pest or weed control at 560 g/ha ([6]; 336 h, 14 DAA): 98.5%; pest or weed control at 280 g/ha ([6]; 504 h, 21 DAA): 97%; pest or weed control at 560 g/ha ([6]; 504 h, 21 DAA): 99.5%; pest or weed control at 280 g/ha ([7]; 168 h, 7 DAA): 75%; pest or weed control at 560 g/ha ([7]; 168 h, 7 DAA): 80%; pest or weed control at 280 g/ha ([7]; 336 h, 14 DAA): 97.5%; pest or weed control at 560 g/ha ([7]; 336 h, 14 DAA): 99%; pest or weed control at 280 g/ha ([7]; 504 h, 21 DAA): 87.5%; pest or weed control at 560 g/ha ([7]; 504 h, 21 DAA): 97.5%"
O=C(COc1ccc(Cl)cc1Cl)Nc1ccccn1 [Compound D28],82.5%,82.5%,99.5%,97.5%,99.5%,98.5%,79%,83.1%,95.8%,95.8%,96.2%,99%,0.06 µg/min,75%,85%,90%,100%,100%,100%,80%,"pest or weed control at 560 g/ha ([5]; 168 h, 7 DAA): 98%; pest or weed control at 280 g/ha ([5]; 336 h, 14 DAA): 96%; pest or weed control at 560 g/ha ([5]; 336 h, 14 DAA): 87.5%; pest or weed control at 280 g/ha ([5]; 504 h, 21 DAA): 81.5%; pest or weed control at 560 g/ha ([5]; 504 h, 21 DAA): 100%; pest or weed control at 280 g/ha ([6]; 168 h, 7 DAA): 77.5%; pest or weed control at 560 g/ha ([6]; 168 h, 7 DAA): 72.5%; pest or weed control at 280 g/ha ([6]; 336 h, 14 DAA): 96.5%; pest or weed control at 560 g/ha ([6]; 336 h, 14 DAA): 97.5%; pest or weed control at 280 g/ha ([6]; 504 h, 21 DAA): 100%; pest or weed control at 560 g/ha ([6]; 504 h, 21 DAA): 100%; pest or weed control at 280 g/ha ([7]; 168 h, 7 DAA): 80%; pest or weed control at 560 g/ha ([7]; 168 h, 7 DAA): 77.5%; pest or weed control at 280 g/ha ([7]; 336 h, 14 DAA): 97%; pest or weed control at 560 g/ha ([7]; 336 h, 14 DAA): 96.5%; pest or weed control at 280 g/ha ([7]; 504 h, 21 DAA): 100%; pest or weed control at 560 g/ha ([7]; 504 h, 21 DAA): 96.5%"
